This is an account of results in patent US9284283B2, “Macrocyclic compounds for modulating IL-17” (ENSEMBLE THERAPEUTICS CORPORATION, priority 2012, dated 2016).

Molecules are shown by their SMILES. pIC50: −log10 of the molar value. Bounds are passed on as bounds.

The target in the assay is T1, biotinylated human IL-17 (binding to IL17R/Fc) (Homo sapiens, UniProt Q16552).
T1 construct: purchased R&D Systems 317-ILB (IL-17, biotinylated); 177-IR (IL17R/Fc)
T1 sequence (Q16552 20-155 limits assumed): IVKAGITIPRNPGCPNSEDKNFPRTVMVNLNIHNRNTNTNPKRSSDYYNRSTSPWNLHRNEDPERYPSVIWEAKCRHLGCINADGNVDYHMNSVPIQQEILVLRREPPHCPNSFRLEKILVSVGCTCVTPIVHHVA
The assay can be described thus: IL-17 competition ELISA II (captured IL17R/Fc, biotinylated IL-17). On the procedure:
In this version, a high binding 96-well plate (Costar #9018) was coated with 20 nM of goat anti-human IgG (KPL 01-10-02) in PBS, 100 μL/well, for 30 min at 37° C. followed by 5 min at 4° C. The plate was then washed in PBST (PBS/0.05% Tween-20) on a plate washer, (BioTek ELx450) then blocked with protein-free blocking buffer (Thermo Scientific #37573) in 250 μL/well for 30 min on a shaker at room temperature, and then washed again. IL17R/Fc (R&D Systems #177-IR; 10 nM in PBST, 100 μL/well) was then added to all wells. The plate was then incubated for 30 minutes at room temperature on the shaker.
While the receptor capture step was underway, compound dilutions were prepared in PBST to a concentration of 1 μM in 1.5 mL tubes. After the receptor capture step, the plate was washed and 50 μL PBST was added to the wells in row B down to row H. Then, 62.5 μL of the 1 μM compound dilutions were added to the wells of row A. From row A, 12.5 μL of the compound solution was removed and added to row B with mixing and this process of 5-fold dilutions was continued, by row, to row G. One of the wells in row A received only PBST (62.5 μL) and this dilution series served as the no competitor control. Then, going up from row G to row A, 50 μL of b-IL-17 (biotinylated human IL-17, R&D Systems #317-ILB; 20 nM) was added to all wells. Row H received 50 μL of PBST and served as the blank row, i.e., no compound and no b-IL-17. The plate was then incubated for 30 minutes at room temperature on the shaker.
After the wash, 100 μL Streptavidin-Horseradish Peroxidase (SA-HRP) (KPL #14-30-00) at 25 ng/mL in PBST was added to each well in the plate and the plate incubated for 30 minutes at room temperature followed by wash and 100 μL SureBlue™ TMB (KPL #52-00-03). After sufficient color development (approx 3-6 minutes), the reaction was fixed by the addition of 100 μL/well 0.5 N HCl and absorbance was measured at 450 nm on a BioTek Synergy 2 plate reader. The absorbances of ‘no competitor’ control and blank control should not exceed 1.5 A.U. and 0.06 A.U., respectively.
Data was processed using BioAssay Enterprise v10.1.4 (CambridgeSoft) software. Linear OD λ450 were plotted against log concentration (x) and fitted to a 4-parameter logistic equation. IC50 was calculated using positive ‘no competitor’ control data as an upper limit and blank control as a lower limit in each assay.
In general terms: An ELISA detects its analyte on a solid surface through an enzyme-linked reagent.
The pIC50 is the IC50 on a negative log10 scale, so that one unit is a factor of ten. Take `C[C@H]1NC(=O)[C@@H](Cc2ccc(NC(=O)[C@H](Cc3ccccc3Cl)NC(=O)Oc3ccc(F)cc3)cc2)NC(=O)CC2(CCCC2)CC(=O)NCCCCCNC1=O` [Compound 575]: the pIC50 is over 7.00.

On to `O=C1CC2(CCCC2)CC(=O)N[C@H](Cc2ccc(NC(=O)[C@H](Cc3ccccc3Cl)NC(=O)Cc3ccc(CO)cc3)cc2)C(=O)NCCCCCN1` [Compound 394], for which the pIC50 is over 7.00.

For `CN1CCNCCOC(=O)CC2(CCCC2)CC(=O)N[C@H](Cc2ccc(NC(=O)[C@H](Cc3ccccc3Cl)NC(=O)Cc3ccccc3)cc2)C(=O)N[C@H](Cc2ccccc2)C1=O` [Compound 445], the negative logarithm of the IC50 (pIC50) was over 7.00.

As for `O=C1CNC(=O)[C@@H](Cc2ccc(NC(=O)[C@@H](NC(=O)CC3CCCCC3)C3CCCCC3)cc2)NC(=O)CC2(CCCC2)CC(=O)NCCCCCN1` [Compound 395], the pIC50 is over 7.00.

As to `C[C@H]1NC(=O)[C@@H](Cc2ccc(NC(=O)[C@H](Cc3ccccc3Cl)NC(=O)Cc3ccc(F)cc3)cc2)NC(=O)[C@H]2CC[C@H](CC2)C(=O)NCCCCCNC1=O` [Compound 592], the pIC50 was 6.00 to 7.00.

As to `C[C@H]1NC(=O)[C@@H](Cc2ccc(NC(=O)[C@H](Cc3ccccc3Cl)NC(=O)Cc3ccc(F)cc3)cc2)NC(=O)CC2(CCCC2)CC(=O)N2CCN(CCNC1=O)CC2` [Compound 541], the pIC50 was over 7.00.

Consider `C[C@H]1NC(=O)[C@@H](Cc2ccc(NC(=O)[C@H](Cc3ccccc3Cl)NC(=O)C(F)(F)c3ccccc3)cc2)NC(=O)C[C@H](Cc2ccccc2)NC(=O)CCNC(=O)CCNC1=O` [Compound 633], for which the pIC50 was over 7.00.

`C[C@H]1NC(=O)[C@@H](Cc2ccc(NC(=O)[C@@H](NC(=O)Cc3ccc(F)cc3)C3CCCCC3)cc2)NC(=O)CC2(CCCC2)CC(=O)N(C)CCCCCN(C)C1=O` [Compound 623]: the pIC50 was over 7.00.

Take `C[C@H]1NC(=O)[C@@H](Cc2ccc(NC(=O)[C@H](Cc3ccccc3Cl)NC(=O)OCc3ccccc3)cc2)NC(=O)CC2(CCCC2)CC(=O)N(C)CCN(C)CCN(C)C1=O` [Compound 587]: the pIC50 was over 7.00.

For `C[C@H]1NC(=O)[C@@H](Cc2ccc(NC(=O)[C@H](Cc3ccccc3Cl)Nc3nc4ccccc4o3)cc2)NC(=O)CC2(CCCC2)CC(=O)N(C)CCOCCN(C)C1=O` [Compound 654], the negative logarithm of the IC50 (pIC50) is over 7.00.

As to `O=C1CNC(=O)[C@@H](Cc2ccc(NC(=O)[C@H](Cc3ccccc3Cl)NC(=O)C(F)F)cc2)NC(=O)CC2(CCCC2)CC(=O)OCCCCCN1` [Compound 675], the negative logarithm of the IC50 (pIC50) was over 7.00.

Turning to `C[C@H]1NC(=O)[C@@H](Cc2ccc(NC(=O)[C@H](Cc3ccccc3Cl)NC(=O)C(F)(F)c3ccccc3)cc2)NC(=O)C[C@@H](Cc2ccccc2)NC(=O)CCNC(=O)CCNC1=O` [Compound 634], the pIC50 is over 7.00.

Consider `O=C1CC2(CCCC2)CC(=O)N[C@H](Cc2ccc(NC(=O)[C@H](Cc3ccccc3Cl)NC(=O)Cc3ccccc3)cc2)C(=O)NCCCCCN1` [Compound 392], for which the pIC50 is over 7.00.

Turning to `C[C@H]1NC(=O)[C@@H](Cc2ccc(NC(=O)[C@H](Cc3ccccc3Cl)NC(=O)Cc3ccc(F)cc3)cc2)NC(=O)CN(C)CC(=O)NCCCCCNC1=O` [Compound 558], the pIC50 is over 7.00.

Regarding `O=C1CC2(CCCC2)CC(=O)N[C@H](Cc2ccc(NC(=O)[C@H](Cc3ccccc3Cl)NC(=O)Cc3ccc(CO)cc3)cc2)C(=O)NCCCCN1` [Compound 393], the pIC50 is over 7.00.

On to `NCCCC[C@H]1NC(=O)[C@@H](Cc2ccc(NC(=O)[C@H](Cc3ccccc3Cl)NC(=O)Cc3ccccc3)cc2)NC(=O)CC2(CCCC2)CC(=O)NCCCCCNC1=O` [Compound 432], for which the pIC50 was over 7.00.

On to `O=C1CC2(CCCC2)CC(=O)N[C@H](Cc2ccc(NC(=O)[C@H](Cc3ccccc3Cl)NC(=O)c3ccc(F)cc3O)cc2)C(=O)NCCOCCOCCN1` [Compound 538], for which the pIC50 was 6.00 to 7.00.

As to `C[C@H]1NC(=O)[C@@H](Cc2ccc(NC(=O)[C@H](Cc3ccccc3Cl)NC(=O)c3ccc(F)cc3)cc2)NC(=O)CC2(CCCC2)CC(=O)N(C)CCCCCN(C)C1=O` [Compound 525], the pIC50 is over 7.00.

Turning to `Cc1cccc(CC(=O)N[C@@H](Cc2ccccc2Cl)C(=O)Nc2ccc(C[C@H]3NC(=O)CC4(CCCC4)CC(=O)NCCOCCOCCNC3=O)cc2)c1` [Compound 496], the pIC50 was over 7.00.

As for `CN1CCOCCOCCNC(=O)[C@@H](Cc2ccc(NC(=O)[C@H](CC3CCCCC3)NC(=O)Cc3ccc(N(C)C)cc3)cc2)NC(=O)CC2(CCCC2)CC1=O` [Compound 614], the pIC50 was over 7.00.

Turning to `O=C1CC2(CCCC2)CC(=O)N[C@H](Cc2ccc(NC(=O)[C@H](Cc3ccccc3Cl)NC(=O)Cc3ccccc3)cc2)C(=O)NCCNCCN1` [Compound 411], the pIC50 is over 7.00.

As for `COC(=O)N[C@H](C(=O)Nc1ccc(C[C@H]2NC(=O)CC3(CCCC3)CC(=O)N(C)CCOCCOCCNC2=O)cc1)C1CCCCC1` [Compound 624], the negative logarithm of the IC50 (pIC50) is under 5.00.

Regarding `COC(=O)N[C@@H](Cc1ccccc1Cl)C(=O)Nc1ccc(C[C@H]2NC(=O)CC3(CCCC3)CC(=O)N(C)CCCCCN(C)C(=O)[C@@H](C)NC2=O)cc1` [Compound 570], the pIC50 was over 7.00.

As to `O=C1CNC(=O)[C@@H](Cc2ccc(NC(=O)[C@@H](NC(=O)Cc3c(F)cc(F)cc3F)C3CCCCC3)cc2)NC(=O)CC2(CCCC2)CC(=O)NCCCCCN1` [Compound 404], the pIC50 was over 7.00.

Turning to `O=C1CNC(=O)[C@@H](Cc2ccc(NC(=O)[C@H](Cc3ccccc3Cl)NC(=O)C(F)(F)c3ccccc3)cc2)NC(=O)CC2(CCCC2)CC(=O)OCCCCCN1` [Compound 674], the pIC50 was over 7.00.

As to `O=C1CC2(CCCC2)CC(=O)N[C@H](Cc2ccc(NC(=O)[C@H](Cc3ccccc3Cl)NC(=O)C(F)(F)c3ccc(F)cc3)cc2)C(=O)NCCOCCOCCN1` [Compound 559], the pIC50 is over 7.00.

As to `C[C@H]1NC(=O)[C@@H](Cc2ccc(NC(=O)[C@H](Cc3ccccc3Cl)NC(=O)c3cncc4ccccc34)cc2)NC(=O)CC2(CCCC2)CC(=O)NCCCCCNC1=O` [Compound 429], the pIC50 is over 7.00.

Turning to `C[C@H]1NC(=O)[C@@H](Cc2ccc(NC(=O)[C@@H](Nc3nc4ccccc4o3)C3CCCCC3)cc2)NC(=O)CC2(CCCC2)CC(=O)NCCCCCNC1=O` [Compound 664], the negative logarithm of the IC50 (pIC50) is over 7.00.

For `CN1CCOCCOCCNC(=O)[C@@H](Cc2ccc(NC(=O)[C@H](CC3CCC3)NC(=O)C(F)(F)c3ccccc3)cc2)NC(=O)CC2(CCCC2)CC1=O` [Compound 615], the pIC50 was over 7.00.

As for `O=C1CC2(CCCC2)CC(=O)N[C@H](Cc2ccc(NC(=O)[C@H](Cc3ccccc3Cl)NC(=O)Cc3ccc(CO)cc3)cc2)C(=O)NCCNCCN1` [Compound 412], the pIC50 was 6.00 to 7.00.

In the case of `O=C1CC2(CCCC2)CC(=O)N[C@H](Cc2ccc(NC(=O)[C@H](Cc3ccccc3Cl)NC(=O)NCc3ccccc3)cc2)C(=O)NCCOCCOCCN1` [Compound 463], the pIC50 is over 7.00.

Turning to `CN1C(=O)CC2(CCCC2)CC(=O)NCCCCCC#CCNC(=O)[C@H]1Cc1ccc(NC(=O)[C@H](Cc2ccccc2Cl)NC(=O)C2(c3ccc(F)cc3)CC2)cc1` [Compound 491], the pIC50 was 5.00 to 6.00.

In the case of `O=C1CC2(CCCC2)CC(=O)N[C@H](Cc2ccc(NC(=O)[C@H](Cc3ccccc3Cl)NC(=O)Cc3ccc(CO)cc3)cc2)C(=O)NCCCN1` [Compound 401], the pIC50 is over 7.00.

For `O=C1CC2(CCCC2)CC(=O)N[C@H](Cc2ccc(NC(=O)[C@H](Cc3ccccc3Cl)NC(=O)Cc3ccccc3)cc2)C(=O)NCCCCN1` [Compound 391], the pIC50 is over 7.00.
